From PubChem BioAssay AID815 (Emory University Molecular Libraries Screening Center, 2007)
Results filed as inconclusive are left out. The source made the active and inactive calls.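 How the source made its calls: active means compounds whose half-maximal effective concentration EC50 against measles virus is under 10 µM; inactive means the rest, inconclusive results apart.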

System: Vero cells, measles virus yield reduction, TCID50, 36 h
Experiment: antiviral potency against measles with cytotoxicity – cell-based, EC50 and CC50, dose response (AID 815)
Conditions: for CC50: measured here: cytotoxicity, viable cells

Row | SMILES | EC50 | CC50
1 | O=C(Nc1ccc(S(=O)(=O)N2CCCC2)cc1)c1ccccc1C(F)(F)F | > 75 µM (inactive) | > 300 µM
2 | Nc1ccc(C(=O)Nc2ccc(S(=O)(=O)N3CCCC3)cc2)c(Cl)c1 | > 75 µM (inactive) | > 300 µM
3 | COc1ccc(Br)c(C(=O)Nc2ccc(S(=O)(=O)N3CCCC3)cc2)c1 | > 75 µM (inactive) | > 300 µM
4 | Cn1nc(C(F)(F)F)cc1C(=O)Cc1ccc(S(=O)(=O)N2CCCC2)cc1 | 15.5 µM (inactive) | > 300 µM
5 | O=C(Nc1ccc(S(=O)(=O)N2CCCC2)cc1)c1nc2ccccc2s1 | > 75 µM (inactive) | > 300 µM
6 | Cc1nc(C(F)(F)F)ccc1C(=O)Nc1ccc(S(=O)(=O)N2CCCC2)cc1 | > 75 µM (inactive) | > 300 µM
7 | O=C(Nc1ccc(S(=O)(=O)N2CCCC2)cc1)c1cccs1 | > 75 µM (inactive) | > 300 µM
8 | O=C(Nc1ccc(S(=O)(=O)N2CCCC2)cc1)c1ccc(F)cc1 | > 75 µM (inactive) | > 300 µM
9 | Cc1cc(C(=O)Nc2ccc(S(=O)(=O)N3CCCC3)cc2)n(C)n1 | > 75 µM (inactive) | > 300 µM
10 | Cn1nc(C(F)(F)F)cc1C(=O)Nc1ccc(S(=O)(=O)N2CCC[C@H]2C(=O)O)cc1 | 23 µM (inactive) | > 300 µM
11 | O=C(Nc1ccc(S(=O)(=O)N2CCCC2)cc1)c1cc(C(F)(F)F)nn1Cc1ccccc1 | > 75 µM (inactive) | 37 µM
12 | Cn1nc(C(F)(F)F)cc1C(=O)Nc1ccc(S(=O)(=O)N2CCC[C@H]2C(=O)OC(=O)c2ccccc2)cc1 | 14 µM (inactive) | 100 µM
13 | Cn1nc(C(F)(F)F)cc1C(=O)Nc1ccc(S(=O)(=O)N2CCCC2)cc1O | > 75 µM (inactive) | 288 µM
14 | Cn1nc(C(C)(C)C)cc1C(=O)Nc1ccc(S(=O)(=O)N2CCCC2)cc1 | 25 µM (inactive) | 140 µM
15 | O=C(Nc1ccc(S(=O)(=O)N2CCCC2)cc1)c1ccc([N+](=O)[O-])cc1Cl | > 75 µM (inactive) | > 300 µM
16 | Cn1nc(C(F)(F)F)cc1C(=O)Nc1ccc(S(=O)(=O)N2CCCC2)cc1N | > 75 µM (inactive) | > 300 µM
17 | Cn1nc(C(F)(F)F)cc1COc1ccc(S(=O)(=O)N2CCCC2)cc1 | > 75 µM (inactive) | > 300 µM
18 | O=C(Nc1ccc(S(=O)(=O)N2CCCC2)cc1)c1ccc(C(F)(F)F)cc1[N+](=O)[O-] | > 75 µM (inactive) | > 300 µM
19 | O=C(Nc1ccc(S(=O)(=O)N2CCCC2)cc1)c1cccc(C(F)(F)F)c1 | > 75 µM (inactive) | > 300 µM
20 | O=C(Nc1ccc(S(=O)(=O)N2CCCC2)cc1)c1ccco1 | > 75 µM (inactive) | > 300 µM
21 | Cn1nc(C(F)(F)F)cc1C(O)Cc1ccc(S(=O)(=O)N2CCCC2)cc1 (stereo not drawn) | 41 µM (inactive) | > 300 µM
22 | Cc1cc(CNc2ccc(S(=O)(=O)N3CCCC3)cc2)n(C)n1 | > 75 µM (inactive) | > 300 µM
23 | O=C(Nc1ccc(S(=O)(=O)N2CCCC2)cc1)c1cc(C(F)(F)F)ccc1F | > 75 µM (inactive) | 76 µM
24 | O=C(Nc1ccc(S(=O)(=O)N2CCCC2)cc1)c1nccn1-c1ccccc1C(F)(F)F | 65 µM (inactive) | > 300 µM
25 | Cn1nc(C(F)(F)F)cc1C(=O)Nc1ccc(S(=O)(=O)N2CCNCC2)cc1 | 28 µM (inactive) | 126 µM
26 | Cn1nc(C(F)(F)F)cc1C(=O)Nc1ccc(S(=O)(=O)N2CCCCC2C(=O)O)cc1 (stereo not drawn) | > 75 µM (inactive) | > 300 µM
27 | Cn1nc(C(F)(F)F)cc1C(=O)Nc1ccc(S(=O)(=O)N2CCOCC2)cc1 | 43 µM (inactive) | > 300 µM
28 | O=C(Nc1ccc(S(=O)(=O)N2CCCC2)cc1)c1ccc(C(F)(F)F)cc1 | 48 µM (inactive) | > 300 µM
29 | Cn1nc(C(F)(F)F)cc1C(=O)Nc1ccc(S(=O)(=O)N2CCCCC2)cc1 | < 2.3 µM | > 300 µM
